Measured values as given in ChEMBL document CHEMBL4828769, “Discovery of AS-0141, a Potent and Selective Inhibitor of CDC7 Kinase for the Treatment of Solid Cancers” (J Med Chem, 2021).
Calls of active or inactive are those of the source. The calls are words filed in the database; no cut-off is given here.

Columns and labels:
[1] = Inhibition of human CDC7/ASK using FITC-labelled MCM2 substrate in presence of 5 uM of ATP
[2] = Inhibition of human CDC7/ASK using FITC-labelled MCM2 substrate in presence of 1 mM of ATP
[3] = target: T1, Cell division cycle 7-related protein kinase (Homo sapiens, UniProt O00311); test: Inhibition of CDC7 in human COLO205 cells assessed as reduction in MCM2 phosphorylation at S53 residue at 0.1 uM incubated for 48 hrs by Western blot analysis relative to control; assay type: cell-based; conditions: COLO 205
Target sequence in this assay (O00311 whole entry, looked up): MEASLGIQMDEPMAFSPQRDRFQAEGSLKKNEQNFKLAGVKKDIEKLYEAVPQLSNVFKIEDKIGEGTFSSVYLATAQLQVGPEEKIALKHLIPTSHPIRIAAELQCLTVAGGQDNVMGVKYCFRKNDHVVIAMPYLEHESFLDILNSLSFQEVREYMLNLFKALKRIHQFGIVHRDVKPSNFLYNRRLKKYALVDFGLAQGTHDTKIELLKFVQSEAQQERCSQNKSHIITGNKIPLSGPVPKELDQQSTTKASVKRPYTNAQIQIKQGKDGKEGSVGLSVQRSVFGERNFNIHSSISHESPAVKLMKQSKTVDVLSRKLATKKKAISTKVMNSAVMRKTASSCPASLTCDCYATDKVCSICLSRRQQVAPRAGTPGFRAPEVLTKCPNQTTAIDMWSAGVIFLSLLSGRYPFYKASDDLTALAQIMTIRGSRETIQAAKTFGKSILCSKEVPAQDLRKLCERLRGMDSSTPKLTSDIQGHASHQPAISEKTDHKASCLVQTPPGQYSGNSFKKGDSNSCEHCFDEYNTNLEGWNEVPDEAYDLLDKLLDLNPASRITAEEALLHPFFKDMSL

[4] = Metabolic stability in rat liver microsomes assessed as parent compound remaining after 30 mins; assay type: ADME, Microsome; conditions: read-out: Stability
[5] = Metabolic stability in mouse liver microsomes assessed as parent compound remaining after 30 mins; assay type: ADME, Microsome; conditions: liver microsomes, read-out: Stability
[6] = target: T2, Dual specificity protein kinase CLK1 (Homo sapiens, UniProt P49759); test: Inhibition of CLK1 (unknown origin) at 0.1 uM in presence of 1 mM ATP relative to control
Target sequence in this assay (P49759 whole entry, looked up): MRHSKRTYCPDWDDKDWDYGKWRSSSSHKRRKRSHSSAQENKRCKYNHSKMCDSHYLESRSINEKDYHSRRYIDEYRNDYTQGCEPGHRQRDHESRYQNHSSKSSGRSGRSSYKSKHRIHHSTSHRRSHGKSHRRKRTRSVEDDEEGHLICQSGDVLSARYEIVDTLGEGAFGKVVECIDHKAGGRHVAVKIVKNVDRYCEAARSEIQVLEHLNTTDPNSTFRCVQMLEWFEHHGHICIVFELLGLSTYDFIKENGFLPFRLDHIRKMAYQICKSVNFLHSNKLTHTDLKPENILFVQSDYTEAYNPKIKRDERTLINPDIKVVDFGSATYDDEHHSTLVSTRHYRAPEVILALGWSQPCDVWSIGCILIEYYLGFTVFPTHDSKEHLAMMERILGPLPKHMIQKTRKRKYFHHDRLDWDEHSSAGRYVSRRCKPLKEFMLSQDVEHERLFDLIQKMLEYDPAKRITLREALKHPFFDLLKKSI

[7] = target: T3, Dual specificity protein kinase CLK2 (Homo sapiens, UniProt P49760); test: Inhibition of CLK2 (unknown origin) at 0.1 uM in presence of 1 mM ATP relative to control
Target sequence in this assay (P49760 whole entry, looked up): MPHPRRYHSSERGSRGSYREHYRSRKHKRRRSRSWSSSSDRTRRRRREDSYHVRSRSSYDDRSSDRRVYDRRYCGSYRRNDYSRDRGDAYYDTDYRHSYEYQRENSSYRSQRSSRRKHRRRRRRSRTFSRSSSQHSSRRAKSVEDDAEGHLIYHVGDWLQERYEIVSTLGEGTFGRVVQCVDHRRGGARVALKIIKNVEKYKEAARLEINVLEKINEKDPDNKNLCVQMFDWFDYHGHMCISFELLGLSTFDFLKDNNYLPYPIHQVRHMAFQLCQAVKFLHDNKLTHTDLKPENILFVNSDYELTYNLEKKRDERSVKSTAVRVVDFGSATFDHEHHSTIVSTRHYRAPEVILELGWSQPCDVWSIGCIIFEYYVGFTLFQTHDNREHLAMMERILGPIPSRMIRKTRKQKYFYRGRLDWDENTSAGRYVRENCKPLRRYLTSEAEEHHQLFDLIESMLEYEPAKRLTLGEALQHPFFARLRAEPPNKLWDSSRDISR

[8] = species on record: Homo sapiens; test: Selectivity index, ratio of IC50 for inhibition of human CDC7 in presence of 1 mM ATP without preincubation to IC50 for inhibition of human CDC7 using FITC-labelled MCM2 substrate preincubated for 30 mins followed by substrate addition and measured after 5 hrs in presence of 1 mM ATP
[9] = target: Serine/threonine-protein kinase pim-1 (Homo sapiens, UniProt P11309); test: Inhibition of PIM1 (unknown origin) in presence of 1 mM ATP with preincubation
Sequence of Serine/threonine-protein kinase pim-1 (P11309 whole entry): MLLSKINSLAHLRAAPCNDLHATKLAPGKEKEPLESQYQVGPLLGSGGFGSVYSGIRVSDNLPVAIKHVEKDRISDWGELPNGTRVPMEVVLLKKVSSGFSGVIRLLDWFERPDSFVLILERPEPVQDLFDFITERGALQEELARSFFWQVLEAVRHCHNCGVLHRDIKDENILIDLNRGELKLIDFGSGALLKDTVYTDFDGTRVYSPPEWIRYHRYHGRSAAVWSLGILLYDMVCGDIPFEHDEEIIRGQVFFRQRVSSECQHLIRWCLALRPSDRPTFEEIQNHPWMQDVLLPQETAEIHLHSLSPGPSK

[10] = species on record: Homo sapiens; test: Selectivity index, ratio of IC50 for PIM1 (unknown origin) in presence of 1 mM ATP without preincubation to IC50 for PIM1 (unknown origin) in presence of 1 mM ATP with preincubation
[11] = target: T2, Dual specificity protein kinase CLK1; test: Inhibition of CLK1 (unknown origin) in presence of 1 mM ATP without preincubation
Target sequence in this assay (P49759 whole entry): as the sequence (P49759 whole entry, looked up) above

[12] = target: T2, Dual specificity protein kinase CLK1; test: Inhibition of CLK1 (unknown origin) in presence of 1 mM ATP with preincubation
Target sequence in this assay (P49759 whole entry): as the sequence (P49759 whole entry, looked up) above

[13] = species on record: Homo sapiens; test: Selectivity index, ratio of IC50 for CLK1 (unknown origin) in presence of 1 mM ATP without preincubation to IC50 for CLK1 (unknown origin) in presence of 1 mM ATP with preincubation
[14] = target: T3, Dual specificity protein kinase CLK2; test: Inhibition of CLK2 (unknown origin) in presence of 1 mM ATP without preincubation
Target sequence in this assay (P49760 whole entry): as the sequence (P49760 whole entry, looked up) above

[15] = target: T3, Dual specificity protein kinase CLK2; test: Inhibition of CLK2 (unknown origin) in presence of 1 mM ATP with preincubation
Target sequence in this assay (P49760 whole entry): as the sequence (P49760 whole entry, looked up) above

[16] = target: T4, Glycogen synthase kinase-3 alpha (Homo sapiens, UniProt P49840); test: Inhibition of GSK3alpha (unknown origin) in presence of 1 mM ATP without preincubation
T4 sequence (P49840 whole entry): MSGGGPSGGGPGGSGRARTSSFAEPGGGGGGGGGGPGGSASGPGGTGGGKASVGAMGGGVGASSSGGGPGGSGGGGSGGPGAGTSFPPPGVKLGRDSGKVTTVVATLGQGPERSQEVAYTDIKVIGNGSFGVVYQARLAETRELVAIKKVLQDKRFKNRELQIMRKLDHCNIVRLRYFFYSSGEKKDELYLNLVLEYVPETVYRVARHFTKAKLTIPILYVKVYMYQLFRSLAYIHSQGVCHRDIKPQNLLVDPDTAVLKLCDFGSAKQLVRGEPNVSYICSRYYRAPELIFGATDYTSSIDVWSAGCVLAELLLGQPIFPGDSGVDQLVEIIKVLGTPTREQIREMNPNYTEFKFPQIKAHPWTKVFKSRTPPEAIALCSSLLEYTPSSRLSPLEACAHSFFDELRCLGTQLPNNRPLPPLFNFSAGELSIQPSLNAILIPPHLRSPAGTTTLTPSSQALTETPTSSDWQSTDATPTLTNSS

[17] = target: T4, Glycogen synthase kinase-3 alpha; test: Inhibition of GSK3alpha (unknown origin) in presence of 1 mM ATP with preincubation
[18] = species on record: Homo sapiens; test: Selectivity index, ratio of IC50 for GSK3alpha (unknown origin) in presence of 1 mM ATP without preincubation to IC50 for GSK3alpha (unknown origin) in presence of 1 mM ATP with preincubation
[19] = target: T1, Cell division cycle 7-related protein kinase; test: Inhibition of CDC7 in human SW-620 cells assessed as reduction in phosphorylation of MCM2 at Ser53 residue incubated for 48 hrs by Western blot analysis; assay type: cell-based
[20] = target: T1, Cell division cycle 7-related protein kinase; test: Inhibition of CDC7 in human SW-620 cells assessed as reduction in phosphorylation of MCM2 at Ser40 residue incubated for 48 hrs by Western blot analysis; assay type: cell-based
[21] = target: T1, Cell division cycle 7-related protein kinase; test: Inhibition of CDC7 in human SW-620 cells assessed as reduction in phosphorylation of MCM2 at Ser41 residue at 0.03 to 1 uM incubated for 48 hrs by Western blot analysis; assay type: cell-based; conditions: dose 0.03-1 µM
Target sequence in this assay (O00311 whole entry, looked up): as the sequence (O00311 whole entry, looked up) above

[22] = tested on: SW-620; test: Induction of apoptosis in human SW-620 cells assessed as increase in cleaved PARP level incubated for 48 hrs by Western blot analysis; assay type: functional, cell-based; conditions: dose 0.03-1 µM
[23] = tested on: SW-620; test: Induction of apoptosis in human SW-620 cells assessed as increase in gamma-H2AX level incubated for 48 hrs by Western blot analysis; assay type: functional, cell-based; conditions: dose 0.03-1 µM
[24] = Half life in mouse at 1 mg/kg, iv; assay type: ADME, organism-based; conditions: in vivo
[25] = Half life in rat at 2 mg/kg, iv; assay type: ADME, organism-based; conditions: in vivo
[26] = Half life in dog at 1 mg/kg, iv; assay type: ADME, organism-based, Canis lupus familiaris; conditions: in vivo
[27] = Tmax in mouse at 10 mg/kg, po; assay type: ADME, organism-based; conditions: in vivo
[28] = Tmax in rat at 10 mg/kg, po; assay type: ADME, organism-based; conditions: in vivo
[29] = Cmax in mouse at 1 mg/kg, iv; assay type: ADME, organism-based; parameters: route intravenous, dose 1 mg/kg; conditions: in vivo
[30] = Cmax in rat at 2 mg/kg, iv; assay type: ADME, organism-based; parameters: route intravenous, dose 2 mg/kg; conditions: in vivo
[31] = Cmax in rat at 10 mg/kg, po; assay type: ADME, organism-based; parameters: route oral, dose 10 mg/kg; conditions: in vivo
[32] = AUC(0 to infinity) in mouse at 1 mg/kg, iv; assay type: ADME, organism-based; parameters: route intravenous, time infinity, dose 1 mg/kg; conditions: in vivo
[33] = AUC(0 to infinity) in mouse at 10 mg/kg, po; assay type: ADME, organism-based; parameters: time infinity, route oral, dose 10 mg/kg; conditions: in vivo
[34] = AUC(0 to infinity) in rat at 10 mg/kg, po; assay type: ADME, organism-based; parameters: time infinity, route oral, dose 10 mg/kg; conditions: in vivo
[35] = AUC(0 to infinity) in dog at 1 mg/kg, iv; assay type: ADME, organism-based, Canis lupus familiaris; parameters: route intravenous, time infinity, dose 1 mg/kg; conditions: in vivo
[36] = AUC(0 to infinity) in dog at 2 mg/kg, po; assay type: ADME, organism-based, Canis lupus familiaris; parameters: route oral, time infinity, dose 2 mg/kg; conditions: in vivo
[37] = Volume of distribution in rat at 2 mg/kg, iv; assay type: ADME, organism-based; conditions: in vivo
[38] = Volume of distribution in dog at 1 mg/kg, iv; assay type: ADME, organism-based, Canis lupus familiaris; conditions: in vivo
[39] = Clearance in mouse at 1 mg/kg, iv; assay type: ADME, organism-based; conditions: in vivo
[40] = Clearance in rat at 2 mg/kg, iv; assay type: ADME, organism-based; conditions: in vivo
[41] = Clearance in dog at 1 mg/kg, iv; assay type: ADME, organism-based, Canis lupus familiaris; conditions: in vivo
[42] = MRT in rat at 2 mg/kg, iv; assay type: ADME, organism-based; conditions: in vivo
[43] = MRT in dog at 1 mg/kg, iv; assay type: ADME, organism-based, Canis lupus familiaris; conditions: in vivo
[44] = Oral bioavailability in mouse at 10 mg/kg; assay type: ADME, organism-based; conditions: in vivo
[45] = Oral bioavailability in rat at 10 mg/kg; assay type: ADME, organism-based; conditions: in vivo
[46] = Oral bioavailability in dog at 2 mg/kg; assay type: ADME, organism-based, Canis lupus familiaris; conditions: in vivo
[47] = tested on: SW-620; test: Antitumor activity against human SW-620 cells xenografted in BALB/c nude mouse assessed as tumor growth inhibition at 120 mg/kg, po administered daily for 21 days; assay type: functional; conditions: SW-620, po, 504 h, time 21 day, read-out: TGI
[48] = tested on: SW-620; test: Antitumor activity against human SW-620 cells xenografted in BALB/c nude mouse assessed as tumor growth inhibition at 60 mg/kg, po administered as 4 days on and 2 days off schedule for 21 days; assay type: functional; conditions: SW-620, po, 504 h, time 21 day, read-out: TGI
[49] = In vivo inhibition of CDC7 in human SW-620 cells xenografted in BALB/c nude mouse assessed as reduction in phosphorylation of MCM2 at Ser53 residue at 120 mg/kg, po measured after 8 hrs; assay type: functional; conditions: SW-620, po

CCOC(=O)C1=C(NN2CCN(CC(F)(F)F)CC2)O/C(=C\c2c[nH]c3ncccc23)C1=O [MONZOSERTIB]
IC50 [1]: 0.0082 µM
IC50 [2]: 0.503 µM
inhibition [3]: 100%
remaining at 0.5 h [4]: 34.9%
remaining at 0.5 h [5]: 18.7%
inhibition [6]: > 30%
inhibition [7]: > 30%
Ratio IC50 [8]: 210
IC50 [9]: 0.034 µM
Ratio IC50 [10]: 0.9
IC50 [11]: 0.212 µM
IC50 [12]: 0.206 µM
Ratio IC50 [13]: 1
IC50 [14]: 0.27 µM
IC50 [15]: 0.227 µM
IC50 [16]: 0.189 µM
IC50 [17]: 0.251 µM
Ratio IC50 [18]: 0.8
IC50 [19]: 0.053 µM
inhibition ([19]; dose 0.03-1 µM): Dose-Dependent Effect
IC50 [20]: 0.036 µM
inhibition ([20]; dose 0.03-1 µM): Dose-Dependent Effect
inhibition [21]: inactive
Activity [22]: Dose-Dependent Effect
Activity [23]: Dose-Dependent Effect
half-life [24]: 0.32 h
half-life [25]: 3.01 h
half-life [26]: 4.8 h
Tmax [27]: 4.98 min
Tmax [28]: 1 h
Cmax [29]: 408 ng/mL
Cmax [30]: 1210 ng/mL
Cmax [31]: 426 ng/mL
AUC(0-inf) [32]: 149 ng·h/mL
AUC(0-inf) [33]: 454 ng·h/mL
AUC(0-inf) [34]: 2410 ng·h/mL
AUC(0-inf) [35]: 1250 ng·h/mL
AUC(0-inf) [36]: 834 ng·h/mL
Vd [37]: 3.24 L/kg
Vd [38]: 4.22 L/kg
clearance [39]: 112 mL/min/kg
clearance [40]: 37.7 mL/min/kg
clearance [41]: 13.5 mL/min/kg
MRT [42]: 1.45 h
MRT [43]: 5.26 h
bioavailability [44]: 30.6%
bioavailability [45]: 54.4%
bioavailability [46]: 33.3%
inhibition in vivo at 120 mg/kg [47]: 88%
inhibition in vivo at 60 mg/kg [48]: 83%
inhibition in vivo at 120 mg/kg [49]: 83%
